Laboratory results published in ChEMBL document CHEMBL1201862, “PubChem BioAssay data set” (2004).
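48-hour exposure; five concentrations; linearly interpolated endpoints. GI50 is the concentration that inhibits growth by half.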 Calls of active or inactive are those of the source. No stated cut-off is given here; in the data, active = GI50 up to about 1.1 µM and inactive = higher.

Key:
Test in all cases: DTP human tumour cell line panel, 48 h
A549 = test system: A549
ACHN = test system: ACHN
CAKI-1 = test system: CAKI-1
EKVX = test system: EKVX
HCT-15 = test system: HCT-15
HT-29 = test system: HT-29
M14 = test system: M14
MOLT-4 = test system: MOLT-4
Malme-3M = test system: Malme-3M
NCI-H226 = test system: NCI-H226
NCI-H522 = test system: NCI-H522
OVCAR-5 = test system: OVCAR-5
PC-3 = test system: PC-3
SF-268 = test system: SF-268
SK-MEL-28 = test system: SK-MEL-28
SN12C = test system: SN12C
SNB-75 = test system: SNB-75
TK-10 = test system: TK-10
A498 = test system: A498
HL-60 = test system: HL-60

SMILES	GI50 (A549)	GI50 (ACHN)	GI50 (CAKI-1)	GI50 (EKVX)	GI50 (HCT-15) [µM]	GI50 (HT-29)	GI50 (M14)	GI50 (MOLT-4)	GI50 (Malme-3M)	GI50 (NCI-H226)	GI50 (NCI-H522)	GI50 (OVCAR-5)	GI50 (PC-3)	GI50 (SF-268)	GI50 (SK-MEL-28)	GI50 (SN12C)	GI50 (SNB-75)	GI50 (TK-10)	GI50 (A498)	GI50 (HL-60)
Cc1ccc(S(=O)(=O)c2[nH]cc(/C(=C\C3CCCCC3)[N+](=O)[O-])c2C2CCCCC2)cc1	1.71 µM (inactive)	0.366 µM (active)	0.22 µM (active)	0.354 µM (active)	0.199	0.497 µM (active)	0.236 µM (active)	0.324 µM (active)	0.564 µM (active)	0.832 µM (active)	0.208 µM (active)	0.822 µM (active)	0.472 µM (active)	0.414 µM (active)	0.802 µM (active)	0.211 µM (active)	1.82 µM (inactive)	0.544 µM (active)		
CCOC(=O)C1CCCN1C(=O)c1ccccc1Cl (stereo unspecified)	> 100 µM (inactive)	> 100 µM (inactive)	> 100 µM (inactive)	> 100 µM (inactive)	> 100	> 100 µM (inactive)	> 100 µM (inactive)	> 100 µM (inactive)	> 100 µM (inactive)	> 100 µM (inactive)	> 100 µM (inactive)	> 100 µM (inactive)		> 100 µM (inactive)	> 100 µM (inactive)	> 100 µM (inactive)	> 100 µM (inactive)	> 100 µM (inactive)	> 100 µM (inactive)	> 100 µM (inactive)
Cc1ccc2[nH]c3c(c(=O)n(C)c(=O)n3C)c2c1	> 100 µM (inactive)	> 100 µM (inactive)	> 100 µM (inactive)	> 100 µM (inactive)	> 100	> 100 µM (inactive)	> 100 µM (inactive)	> 100 µM (inactive)	> 100 µM (inactive)	> 100 µM (inactive)	> 100 µM (inactive)	> 100 µM (inactive)		> 100 µM (inactive)		> 100 µM (inactive)	> 100 µM (inactive)	> 100 µM (inactive)	> 100 µM (inactive)	> 100 µM (inactive)
CCn1c2ccccc2c2c(-c3ccccc3)cc3c(c21)C(=O)N(c1ccccc1)C3=O	> 100 µM (inactive)	99.8 µM (inactive)	> 100 µM (inactive)	> 100 µM (inactive)	> 100		> 100 µM (inactive)	> 100 µM (inactive)	> 100 µM (inactive)	> 100 µM (inactive)	> 100 µM (inactive)	> 100 µM (inactive)		76.6 µM (inactive)	> 100 µM (inactive)	91 µM (inactive)	89.5 µM (inactive)	> 100 µM (inactive)	> 100 µM (inactive)	> 100 µM (inactive)
CNC1c2ccccc2C(=O)c2cc3c(cc21)OCCOCCOCCOCCO3 (stereo unspecified)	> 100 µM (inactive)	> 100 µM (inactive)		> 100 µM (inactive)	39.9	54 µM (inactive)	> 100 µM (inactive)	28.1 µM (inactive)			34.1 µM (inactive)	> 100 µM (inactive)	> 100 µM (inactive)	> 100 µM (inactive)	> 100 µM (inactive)	99.1 µM (inactive)	> 100 µM (inactive)	> 100 µM (inactive)		27.4 µM (inactive)
CCOC(=O)C(CCCNC(=O)OC(C)(C)C)N(Cc1ccc(OC)cc1OC)C(=O)CC(=O)CP(=O)(OCC)OCC (stereo unspecified)	> 100 µM (inactive)	> 100 µM (inactive)	> 100 µM (inactive)	> 100 µM (inactive)		> 100 µM (inactive)	> 100 µM (inactive)	56.5 µM (inactive)	> 100 µM (inactive)	> 100 µM (inactive)	29 µM (inactive)	> 100 µM (inactive)		> 100 µM (inactive)	> 100 µM (inactive)	> 100 µM (inactive)	> 100 µM (inactive)	> 100 µM (inactive)	> 100 µM (inactive)	97.7 µM (inactive)
Cc1c(CC/C(=N\Nc2ccc([N+](=O)[O-])cc2[N+](=O)[O-])c2ccccc2)c2ccccc2n1C	> 100 µM (inactive)	> 100 µM (inactive)	> 100 µM (inactive)	> 100 µM (inactive)	> 100	> 100 µM (inactive)	> 100 µM (inactive)	> 43.2 µM (inactive)	> 100 µM (inactive)	> 100 µM (inactive)	> 100 µM (inactive)	> 100 µM (inactive)		> 100 µM (inactive)	> 100 µM (inactive)	> 100 µM (inactive)	> 56.1 µM (inactive)	> 100 µM (inactive)	> 100 µM (inactive)	> 50 µM (inactive)
O=C(/C=N/O)c1c(-c2ccccc2)[nH]c(-c2ccccc2)c1-c1ccccc1	14.1 µM (inactive)	16 µM (inactive)	22.1 µM (inactive)	3.71 µM (inactive)	17.9	21.9 µM (inactive)	31 µM (inactive)	2.37 µM (inactive)	18.3 µM (inactive)	26.2 µM (inactive)	13.8 µM (inactive)	0.228 µM (active)		19.3 µM (inactive)	17.8 µM (inactive)	15.8 µM (inactive)	18.3 µM (inactive)	21.3 µM (inactive)	29.2 µM (inactive)	5.98 µM (inactive)
O=C(CCc1nnc2s/c(=C\c3ccc(Cl)cc3Cl)c(=O)n12)Nc1cc(Cl)c(Cl)cc1Cl	> 10 µM (inactive)	> 10 µM (inactive)	> 10 µM (inactive)	> 10 µM (inactive)	> 10	> 10 µM (inactive)	> 10 µM (inactive)	> 10 µM (inactive)	> 10 µM (inactive)	> 10 µM (inactive)	2.31 µM (inactive)	> 10 µM (inactive)		> 10 µM (inactive)	> 10 µM (inactive)	> 10 µM (inactive)	29 µM (inactive)	55.7 µM (inactive)	> 10 µM (inactive)	> 100 µM (inactive)
CCOC(=O)CNC(SC)=C(C#N)C#N	> 100 µM (inactive)		> 100 µM (inactive)	> 100 µM (inactive)	> 100	> 100 µM (inactive)	> 100 µM (inactive)	> 100 µM (inactive)	> 100 µM (inactive)	> 100 µM (inactive)	> 100 µM (inactive)	> 100 µM (inactive)		> 100 µM (inactive)		> 100 µM (inactive)	> 100 µM (inactive)	> 100 µM (inactive)	> 100 µM (inactive)	> 100 µM (inactive)
CN1C(=O)c2cccc3cc([N+](=O)[O-])cc(c23)C1=O	> 10 µM (inactive)	> 10 µM (inactive)	> 10 µM (inactive)		> 10	> 10 µM (inactive)	> 10 µM (inactive)	5.04 µM (inactive)	> 10 µM (inactive)		5.65 µM (inactive)	> 10 µM (inactive)	> 10 µM (inactive)	9.25 µM (inactive)	> 10 µM (inactive)	> 10 µM (inactive)	> 10 µM (inactive)	> 10 µM (inactive)		> 10 µM (inactive)
COc1ccc(NC(=O)c2oc3cc(O)ccc3c(=O)c2C)c([N+](=O)[O-])c1	> 100 µM (inactive)	> 100 µM (inactive)	> 100 µM (inactive)	> 100 µM (inactive)	> 100	> 100 µM (inactive)	> 100 µM (inactive)	> 100 µM (inactive)	> 100 µM (inactive)	> 100 µM (inactive)	> 100 µM (inactive)	> 100 µM (inactive)		> 100 µM (inactive)	> 100 µM (inactive)	> 100 µM (inactive)	> 100 µM (inactive)	> 100 µM (inactive)	> 100 µM (inactive)	> 100 µM (inactive)
CC(=O)Nc1ccc(C2[C@H]3C(=O)N(c4ccc(Cc5ccc(N6C(=O)[C@@H]7ON(c8ccccc8)C(c8ccc(NC(C)=O)cc8)[C@@H]7C6=O)cc5)cc4)C(=O)[C@H]3ON2c2ccccc2)cc1 (stereo partly specified)	> 100 µM (inactive)	> 100 µM (inactive)	98.2 µM (inactive)	> 100 µM (inactive)	> 100	> 100 µM (inactive)	25.2 µM (inactive)	> 100 µM (inactive)	> 100 µM (inactive)	> 100 µM (inactive)	> 100 µM (inactive)	> 100 µM (inactive)		> 100 µM (inactive)	> 100 µM (inactive)	> 100 µM (inactive)	> 100 µM (inactive)	> 100 µM (inactive)	> 100 µM (inactive)	> 100 µM (inactive)
COCC1N=C(c2cc(OC)c(OC)c(OC)c2-c2cc3c(cc2C2OCCCO2)OCO3)O[C@H]1c1ccccc1 (stereo partly specified)	> 100 µM (inactive)	> 100 µM (inactive)	79.4 µM (inactive)	> 100 µM (inactive)	> 100	> 100 µM (inactive)	> 100 µM (inactive)	> 100 µM (inactive)	> 100 µM (inactive)	> 100 µM (inactive)	> 100 µM (inactive)	> 100 µM (inactive)		> 100 µM (inactive)	> 100 µM (inactive)	> 100 µM (inactive)	> 100 µM (inactive)	> 100 µM (inactive)	> 100 µM (inactive)	> 100 µM (inactive)
Oc1[nH]c(Nc2cc(Cl)cc(Cl)c2)nc2ncnc1-2	> 75 µM (inactive)	> 75 µM (inactive)	> 75 µM (inactive)	> 75 µM (inactive)	> 75	> 75 µM (inactive)	> 75 µM (inactive)	> 75 µM (inactive)	> 75 µM (inactive)	> 75 µM (inactive)		> 75 µM (inactive)	> 75 µM (inactive)	> 75 µM (inactive)		> 75 µM (inactive)	> 75 µM (inactive)	> 75 µM (inactive)		
